Test results reported in US9149038B2, “4-amino-6-(heterocyclic)picolinates and 6-amino-2-(heterocyclic)pyrimidine-4-carboxylates and their use as herbicides” (Dow AgroSciences LLC, priority 2013, dated 2015).
Where two headings read alike, the source gives them in different places.

What was measured:
[1] = test system: Key Grass and Sedge Weeds as well as Grass Crops; experiment: Post-Emergent Test II: postemergent herbicidal activity, visual rating after 14 d (Table 8); format: in vivo; details: post-emergence, 336 h; for pest or weed control at 140 g/ha: 140 g ai/ha; for pest or weed control at 35 g/ha: 35 g ai/ha; for pest or weed control at 70 g/ha: 70 g ai/ha
Source text: (§1) Herbicidal evaluations were made visually on a scale of 0 to 100 where 0 represents no activity and 100 represents complete plant death.
(§2) Seeds or nutlets of the desired test plant species were planted in Sun Gro Metro-Mix® 360 planting mixture, which typically has a pH of 6.0 to 6.8 and an organic matter content of about 30 percent, in plastic pots with a surface area of 64 square centimeters (cm^2). When required to ensure good germination and healthy plants, a fungicide treatment and/or other chemical or physical treatment was applied. The plants were grown for 7-21 d in a greenhouse with an approximate 15 h photoperiod which was maintained at about 23-29° C. during the day and 22-28° C. during the night. Nutrients and water were added on a regular basis and supplemental lighting was provided with overhead metal halide 1000-Watt lamps as necessary. The plants were employed for testing when they reached the first or second true leaf stage.
(§3) A weighed amount, determined by the highest rate to be tested, of each test compound was placed in a 25 mL glass vial and was dissolved in 4 mL of a 97:3 v/v mixture of acetone and DMSO to obtain concentrated stock solutions. […] The concentrated stock solutions obtained were diluted with 20 mL of an aqueous mixture containing acetone, water, isopropyl alcohol, DMSO, Atplus 411F crop oil concentrate, and Triton® X-155 surfactant in a 48.5:39:10:1.5:1.0:0.02 v/v ratio to obtain spray solutions containing the highest application rates. Additional application rates were obtained by serial dilution of 12 mL of the high rate solution into a solution containing 2 mL of a 97:3 v/v mixture of acetone and DMSO and 10 mL of an aqueous mixture containing acetone, water, isopropyl alcohol, DMSO, Atplus 411F crop oil concentrate, and Triton X-155 surfactant in a 48.5:39:10:1.5:1.0:0.02 v/v ratio to obtain ½×, ¼×, ⅛× and 1/16× rates of the high rate. Compound requirements are based upon a 12 mL application volume at a rate of 187 liters per hectare (L/ha). Formulated compounds were applied to the plant material with an overhead Mandel track sprayer equipped with 8002E nozzles calibrated to deliver 187 L/ha over an application area of 0.503 square meters at a spray height of 18 inches (43 cm) above the average plant canopy height. Control plants were sprayed in the same manner with the solvent blank.
(§4) The treated plants and control plants were placed in a greenhouse as described above and watered by subirrigation to prevent wash-off of the test compounds. After 14 d, the condition of the test plants as compared with that of the untreated plants was determined visually and scored on a scale of 0 to 100 percent where 0 corresponds to no injury and 100 corresponds to complete kill and are presented as indicated in Table 4.

[2] = test system: Key Broadleaf Weed and Crop Species; experiment: Post-Emergent Test II: postemergent herbicidal activity, visual rating after 14 d (Table 7); format: in vivo; details: post-emergence, 336 h; for pest or weed control at 140 g/ha: 140 g ai/ha; for pest or weed control at 35 g/ha: 35 g ai/ha; for pest or weed control at 70 g/ha: 70 g ai/ha
Source text: as §1, §2, §3, §4

[3] = barnyardgrass (Echinochloa crus-galli), read-out: Visual Growth Reduction (%) 14 Days After Application ECHCG
[4] = giant foxtail (Setaria faberi), read-out: Visual Growth Reduction (%) 14 Days After Application SETFA
[5] = maize, corn (Zea mays), read-out: Visual Growth Reduction (%) 14 Days After Application ZEAMX
[6] = rice (Oryza sativa), read-out: Visual Growth Reduction (%) 14 Days After Application ORYSA
[7] = wheat, spring (Triticum aestivum), read-out: Visual Growth Reduction (%) 14 Days After Application TRZAS
[8] = yellow nutsedge (Cyperus esculentus), read-out: Visual Growth Reduction (%) 14 Days After Application CYPES
[9] = lambsquarters (Chenopodium album), read-out: Visual Growth Reduction (%) 14 Days After Application CHEAL
[10] = oilseed rape, canola (Brassica napus), read-out: Visual Growth Reduction (%) 14 Days After Application BRSNN
[11] = redroot pigweed (Amaranthus retroflexus), read-out: Visual Growth Reduction (%) 14 Days After Application AMARE
[12] = sunflower (Helianthus annuus), read-out: Visual Growth Reduction (%) 14 Days After Application HELAN
[13] = velvetleaf (Abutilon theophrasti), read-out: Visual Growth Reduction (%) 14 Days After Application ABUTH
[14] = wild poinsettia (Euphorbia heterophylla), read-out: Visual Growth Reduction (%) 14 Days After Application EPHHL

Structure (SMILES) | pest or weed control at 140 g/ha [1, 5] [%] | pest or weed control at 140 g/ha [1, 6] [%] | pest or weed control at 140 g/ha [1, 7] [%] | pest or weed control at 140 g/ha [1, 8] [%] | pest or weed control at 140 g/ha [2, 9] [%] | pest or weed control at 140 g/ha [2, 10] [%] | pest or weed control at 140 g/ha [2, 11] [%] | pest or weed control at 140 g/ha [2, 12] [%] | pest or weed control at 140 g/ha [2, 13] [%] | pest or weed control at 140 g/ha [2, 14] [%] | pest or weed control at 35 g/ha [1, 5] [%] | pest or weed control at 70 g/ha [1, 5] [%] | pest or weed control at 35 g/ha [1, 6] [%] | pest or weed control at 70 g/ha [1, 6] [%] | pest or weed control at 35 g/ha [1, 7] [%] | pest or weed control at 70 g/ha [1, 7] [%] | pest or weed control at 35 g/ha [1, 8] [%] | pest or weed control at 35 g/ha [2, 9] [%] | pest or weed control at 70 g/ha [2, 9] [%] | pest or weed control at 35 g/ha [2, 10] [%] | other results
COC(=O)c1nc(-c2cc(OC)c3c(c2)OCO3)c(F)c(N)c1Cl [Compound 14] | 0 to 29 | 0 to 29 | 0 to 29 | 0 to 29 | 75 to 84 | 0 to 29 | 0 to 29 | 85 to 94 | 0 to 29 | 0 to 29 |  |  |  |  |  |  |  |  |  |  | pest or weed control at 140 g/ha [1, 3]: 0 to 29%; pest or weed control at 140 g/ha [1, 4]: 0 to 29%
COC(=O)c1nc(-c2cc(F)c3c(c2)OC(F)(F)O3)c(F)c(N)c1Cl [Compound 17] | 60 to 74 | 0 to 29 | 0 to 29 | 0 to 29 | 0 to 29 | 0 to 29 | 0 to 29 | 0 to 29 | 0 to 29 | 0 to 29 | 0 to 29 | 0 to 29 | 0 to 29 | 0 to 29 | 0 to 29 | 0 to 29 | 0 to 29 | 0 to 29 | 0 to 29 | 0 to 29 | pest or weed control at 70 g/ha [1, 8]: 0 to 29%; pest or weed control at 70 g/ha [2, 10]: 0 to 29%; pest or weed control at 35 g/ha [2, 11]: 0 to 29%; pest or weed control at 70 g/ha [2, 11]: 0 to 29%; pest or weed control at 35 g/ha [2, 12]: 0 to 29%; pest or weed control at 70 g/ha [2, 12]: 0 to 29%; pest or weed control at 35 g/ha [2, 13]: 0 to 29%; pest or weed control at 70 g/ha [2, 13]: 0 to 29%; pest or weed control at 35 g/ha [2, 14]: 0 to 29%; pest or weed control at 70 g/ha [2, 14]: 0 to 29%
COC(=O)c1nc(-c2cc3c(cc2F)OC(F)(F)O3)c(F)c(N)c1OC [Compound 22, Methyl 4-amino-5-fluoro-3-methoxy-6-(2,2,6-trifluorobenzo[d][1,3]dioxol-5-yl)picolinate] | 75 to 84 | 0 to 29 | 60 to 74 | 95 to 100 | 0 to 29 | 0 to 29 | 0 to 29 | 85 to 94 | 0 to 29 | 45 to 59 | 0 to 29 | 60 to 74 | 0 to 29 | 0 to 29 | 0 to 29 | 45 to 59 | 95 to 100 | 0 to 29 | 0 to 29 | 0 to 29 | pest or weed control at 35 g/ha [1, 3]: 0 to 29%; pest or weed control at 70 g/ha [1, 3]: 0 to 29%; pest or weed control at 140 g/ha [1, 3]: 45 to 59%; pest or weed control at 70 g/ha [1, 8]: 95 to 100%; pest or weed control at 70 g/ha [2, 10]: 0 to 29%; pest or weed control at 35 g/ha [2, 11]: 0 to 29%; pest or weed control at 70 g/ha [2, 11]: 0 to 29%; pest or weed control at 35 g/ha [2, 12]: 85 to 94%; pest or weed control at 70 g/ha [2, 12]: 85 to 94%; pest or weed control at 35 g/ha [2, 13]: 0 to 29%; pest or weed control at 70 g/ha [2, 13]: 0 to 29%; pest or weed control at 35 g/ha [2, 14]: 30 to 44%; pest or weed control at 70 g/ha [2, 14]: 45 to 59%
COC(=O)c1nc(-c2ccc3c(c2Cl)OC(F)(F)O3)cc(N)c1Cl [Compound 33] | 75 to 84 | 0 to 29 | 0 to 29 | 95 to 100 | 75 to 84 | 60 to 74 | 95 to 100 | 85 to 94 | 75 to 84 | 60 to 74 | 60 to 74 | 60 to 74 | 0 to 29 | 0 to 29 | 0 to 29 | 0 to 29 | 95 to 100 | 75 to 84 | 75 to 84 | 60 to 74 | pest or weed control at 35 g/ha [1, 4]: 0 to 29%; pest or weed control at 70 g/ha [1, 4]: 0 to 29%; pest or weed control at 140 g/ha [1, 4]: 45 to 59%; pest or weed control at 70 g/ha [2, 10]: 60 to 74%; pest or weed control at 35 g/ha [2, 11]: 60 to 74%; pest or weed control at 70 g/ha [2, 11]: 75 to 84%; pest or weed control at 35 g/ha [2, 12]: 75 to 84%; pest or weed control at 70 g/ha [2, 12]: 85 to 94%; pest or weed control at 35 g/ha [2, 13]: 60 to 74%; pest or weed control at 70 g/ha [2, 13]: 75 to 84%; pest or weed control at 35 g/ha [2, 14]: 0 to 29%; pest or weed control at 70 g/ha [2, 14]: 60 to 74%
